Experiments:
Experiment in all cases: biochemical
Design in all cases: SelectScreen Z'-LYTE purified kinase panel, per cent inhibition, mean of two points
Conditions in all cases: (μM)=Km app
EPHA2 = EPHA2 (Homo sapiens, UniProt P29317)
IGF1R = IGF1R (Homo sapiens, UniProt P08069)
PKN1 (PRK1) = PKN1 (PRK1) (Homo sapiens, UniProt Q16512)
ERBB4 (HER4) = ERBB4 (HER4) (Homo sapiens, UniProt Q15303)
PLK1 = PLK1 (Homo sapiens, UniProt P53350)
PIM3 = PIM3 (Homo sapiens, UniProt Q86V86)
DCAMKL1 (DCLK1) = target: T1, DCAMKL1 (DCLK1) (Homo sapiens, UniProt O15075)
T1 sequence (O15075 1-740): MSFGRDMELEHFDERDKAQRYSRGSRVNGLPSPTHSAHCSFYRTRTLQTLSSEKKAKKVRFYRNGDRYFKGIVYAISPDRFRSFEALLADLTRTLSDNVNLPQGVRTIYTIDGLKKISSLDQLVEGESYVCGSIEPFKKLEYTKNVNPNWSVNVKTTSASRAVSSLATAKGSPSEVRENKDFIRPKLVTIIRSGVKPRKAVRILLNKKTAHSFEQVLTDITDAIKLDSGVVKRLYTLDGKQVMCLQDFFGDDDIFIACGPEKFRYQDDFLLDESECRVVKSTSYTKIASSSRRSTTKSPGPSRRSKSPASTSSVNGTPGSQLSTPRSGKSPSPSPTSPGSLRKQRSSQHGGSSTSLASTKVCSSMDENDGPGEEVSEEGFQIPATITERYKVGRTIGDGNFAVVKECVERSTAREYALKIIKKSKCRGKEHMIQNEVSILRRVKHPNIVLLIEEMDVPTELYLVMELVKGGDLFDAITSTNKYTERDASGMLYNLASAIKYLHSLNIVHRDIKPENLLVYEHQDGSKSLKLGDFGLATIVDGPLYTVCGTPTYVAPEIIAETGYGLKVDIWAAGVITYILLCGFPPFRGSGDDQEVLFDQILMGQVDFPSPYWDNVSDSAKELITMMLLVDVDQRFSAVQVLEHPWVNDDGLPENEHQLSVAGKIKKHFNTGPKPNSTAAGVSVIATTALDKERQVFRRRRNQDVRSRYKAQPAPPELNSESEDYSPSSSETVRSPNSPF

CSNK1G2 (CK1 gamma 2) = CSNK1G2 (CK1 gamma 2) (Homo sapiens, UniProt P78368)
ABL1 = ABL1 (Homo sapiens, UniProt P00519)
EGFR (ErbB1) L858R = EGFR (ErbB1) L858R (Homo sapiens, UniProt P00533, L858R)
SYK = SYK (Homo sapiens, UniProt P43405)
ALK = ALK (Homo sapiens, UniProt Q9UM73)

PLK1, sequence (P53350 whole entry): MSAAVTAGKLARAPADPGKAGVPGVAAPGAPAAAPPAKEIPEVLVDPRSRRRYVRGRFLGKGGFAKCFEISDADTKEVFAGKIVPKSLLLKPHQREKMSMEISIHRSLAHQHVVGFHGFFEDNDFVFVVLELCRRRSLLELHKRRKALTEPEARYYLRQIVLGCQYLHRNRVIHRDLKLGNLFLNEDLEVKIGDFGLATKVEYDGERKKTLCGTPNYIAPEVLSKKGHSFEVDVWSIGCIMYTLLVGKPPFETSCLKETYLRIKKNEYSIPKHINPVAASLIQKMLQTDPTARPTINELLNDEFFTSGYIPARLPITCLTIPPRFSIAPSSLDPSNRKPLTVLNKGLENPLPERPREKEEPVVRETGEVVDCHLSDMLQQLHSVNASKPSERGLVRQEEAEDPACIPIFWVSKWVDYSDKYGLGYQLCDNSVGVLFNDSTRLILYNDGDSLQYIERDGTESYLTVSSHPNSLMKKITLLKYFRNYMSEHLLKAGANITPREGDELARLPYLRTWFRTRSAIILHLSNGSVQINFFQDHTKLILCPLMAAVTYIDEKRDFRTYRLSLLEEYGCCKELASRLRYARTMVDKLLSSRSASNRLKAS
ABL1, sequence (P00519 whole entry): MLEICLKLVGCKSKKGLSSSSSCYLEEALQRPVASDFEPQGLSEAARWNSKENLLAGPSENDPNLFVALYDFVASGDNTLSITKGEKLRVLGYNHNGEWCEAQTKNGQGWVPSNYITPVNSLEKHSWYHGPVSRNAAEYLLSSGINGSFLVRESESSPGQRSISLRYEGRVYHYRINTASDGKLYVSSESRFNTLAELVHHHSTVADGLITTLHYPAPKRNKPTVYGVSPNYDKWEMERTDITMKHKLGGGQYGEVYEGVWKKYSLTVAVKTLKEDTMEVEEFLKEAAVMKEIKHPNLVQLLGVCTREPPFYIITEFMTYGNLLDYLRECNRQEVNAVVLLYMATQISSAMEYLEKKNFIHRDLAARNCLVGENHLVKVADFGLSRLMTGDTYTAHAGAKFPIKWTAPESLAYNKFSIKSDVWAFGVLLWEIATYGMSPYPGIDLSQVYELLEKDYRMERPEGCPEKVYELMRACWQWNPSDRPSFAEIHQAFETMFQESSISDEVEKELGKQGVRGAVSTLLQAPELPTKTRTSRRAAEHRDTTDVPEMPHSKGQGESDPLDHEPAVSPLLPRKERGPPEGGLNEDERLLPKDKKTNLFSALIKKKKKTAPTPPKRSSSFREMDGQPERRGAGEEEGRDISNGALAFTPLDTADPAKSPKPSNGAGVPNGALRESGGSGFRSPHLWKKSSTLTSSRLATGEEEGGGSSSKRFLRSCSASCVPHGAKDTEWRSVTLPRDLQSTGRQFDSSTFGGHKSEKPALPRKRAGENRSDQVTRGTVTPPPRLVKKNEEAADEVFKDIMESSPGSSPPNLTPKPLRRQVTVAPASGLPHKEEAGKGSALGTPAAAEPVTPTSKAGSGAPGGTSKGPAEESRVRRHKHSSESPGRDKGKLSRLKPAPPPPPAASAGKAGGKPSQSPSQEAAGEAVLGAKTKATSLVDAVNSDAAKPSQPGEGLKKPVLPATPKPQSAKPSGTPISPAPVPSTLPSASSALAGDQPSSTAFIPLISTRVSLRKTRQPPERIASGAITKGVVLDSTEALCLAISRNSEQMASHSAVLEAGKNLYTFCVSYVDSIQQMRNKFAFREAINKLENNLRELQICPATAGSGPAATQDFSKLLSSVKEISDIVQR
PKN1 (PRK1), sequence (Q16512 whole entry): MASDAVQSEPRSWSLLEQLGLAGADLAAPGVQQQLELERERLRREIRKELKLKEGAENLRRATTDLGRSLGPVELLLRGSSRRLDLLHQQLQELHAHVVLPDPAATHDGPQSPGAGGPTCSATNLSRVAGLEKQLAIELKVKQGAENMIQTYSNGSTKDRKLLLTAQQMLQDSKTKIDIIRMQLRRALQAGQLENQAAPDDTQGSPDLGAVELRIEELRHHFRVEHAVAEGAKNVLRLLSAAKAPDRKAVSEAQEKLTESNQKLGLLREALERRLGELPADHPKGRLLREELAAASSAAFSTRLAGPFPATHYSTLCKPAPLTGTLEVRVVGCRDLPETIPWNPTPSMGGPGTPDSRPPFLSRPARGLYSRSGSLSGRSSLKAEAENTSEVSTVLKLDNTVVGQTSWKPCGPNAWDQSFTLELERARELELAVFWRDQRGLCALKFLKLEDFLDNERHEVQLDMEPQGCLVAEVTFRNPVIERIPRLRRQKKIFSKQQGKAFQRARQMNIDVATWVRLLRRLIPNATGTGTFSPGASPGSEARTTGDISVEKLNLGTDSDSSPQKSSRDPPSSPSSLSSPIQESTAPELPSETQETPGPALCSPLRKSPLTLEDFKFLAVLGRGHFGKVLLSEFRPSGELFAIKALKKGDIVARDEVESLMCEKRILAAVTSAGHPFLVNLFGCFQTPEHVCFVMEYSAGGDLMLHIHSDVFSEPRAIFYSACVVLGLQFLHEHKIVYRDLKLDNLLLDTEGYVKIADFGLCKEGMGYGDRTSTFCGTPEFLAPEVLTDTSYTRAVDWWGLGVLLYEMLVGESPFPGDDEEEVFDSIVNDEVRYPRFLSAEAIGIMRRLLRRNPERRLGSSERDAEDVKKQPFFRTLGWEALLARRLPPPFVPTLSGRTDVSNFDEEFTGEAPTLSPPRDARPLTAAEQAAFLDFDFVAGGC
CSNK1G2 (CK1 gamma 2), sequence (P78368 whole entry): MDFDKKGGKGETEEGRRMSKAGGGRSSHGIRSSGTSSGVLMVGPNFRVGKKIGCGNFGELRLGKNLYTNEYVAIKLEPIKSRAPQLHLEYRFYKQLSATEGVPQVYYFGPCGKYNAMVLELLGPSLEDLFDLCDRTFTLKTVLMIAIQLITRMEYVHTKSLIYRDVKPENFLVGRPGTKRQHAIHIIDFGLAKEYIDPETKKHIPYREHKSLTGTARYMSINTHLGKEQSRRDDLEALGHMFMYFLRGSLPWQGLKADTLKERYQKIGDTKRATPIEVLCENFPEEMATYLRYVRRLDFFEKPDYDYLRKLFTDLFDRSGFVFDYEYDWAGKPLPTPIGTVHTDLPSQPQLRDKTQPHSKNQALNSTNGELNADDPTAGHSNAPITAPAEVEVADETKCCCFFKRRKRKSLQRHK
IGF1R, sequence (P08069 whole entry): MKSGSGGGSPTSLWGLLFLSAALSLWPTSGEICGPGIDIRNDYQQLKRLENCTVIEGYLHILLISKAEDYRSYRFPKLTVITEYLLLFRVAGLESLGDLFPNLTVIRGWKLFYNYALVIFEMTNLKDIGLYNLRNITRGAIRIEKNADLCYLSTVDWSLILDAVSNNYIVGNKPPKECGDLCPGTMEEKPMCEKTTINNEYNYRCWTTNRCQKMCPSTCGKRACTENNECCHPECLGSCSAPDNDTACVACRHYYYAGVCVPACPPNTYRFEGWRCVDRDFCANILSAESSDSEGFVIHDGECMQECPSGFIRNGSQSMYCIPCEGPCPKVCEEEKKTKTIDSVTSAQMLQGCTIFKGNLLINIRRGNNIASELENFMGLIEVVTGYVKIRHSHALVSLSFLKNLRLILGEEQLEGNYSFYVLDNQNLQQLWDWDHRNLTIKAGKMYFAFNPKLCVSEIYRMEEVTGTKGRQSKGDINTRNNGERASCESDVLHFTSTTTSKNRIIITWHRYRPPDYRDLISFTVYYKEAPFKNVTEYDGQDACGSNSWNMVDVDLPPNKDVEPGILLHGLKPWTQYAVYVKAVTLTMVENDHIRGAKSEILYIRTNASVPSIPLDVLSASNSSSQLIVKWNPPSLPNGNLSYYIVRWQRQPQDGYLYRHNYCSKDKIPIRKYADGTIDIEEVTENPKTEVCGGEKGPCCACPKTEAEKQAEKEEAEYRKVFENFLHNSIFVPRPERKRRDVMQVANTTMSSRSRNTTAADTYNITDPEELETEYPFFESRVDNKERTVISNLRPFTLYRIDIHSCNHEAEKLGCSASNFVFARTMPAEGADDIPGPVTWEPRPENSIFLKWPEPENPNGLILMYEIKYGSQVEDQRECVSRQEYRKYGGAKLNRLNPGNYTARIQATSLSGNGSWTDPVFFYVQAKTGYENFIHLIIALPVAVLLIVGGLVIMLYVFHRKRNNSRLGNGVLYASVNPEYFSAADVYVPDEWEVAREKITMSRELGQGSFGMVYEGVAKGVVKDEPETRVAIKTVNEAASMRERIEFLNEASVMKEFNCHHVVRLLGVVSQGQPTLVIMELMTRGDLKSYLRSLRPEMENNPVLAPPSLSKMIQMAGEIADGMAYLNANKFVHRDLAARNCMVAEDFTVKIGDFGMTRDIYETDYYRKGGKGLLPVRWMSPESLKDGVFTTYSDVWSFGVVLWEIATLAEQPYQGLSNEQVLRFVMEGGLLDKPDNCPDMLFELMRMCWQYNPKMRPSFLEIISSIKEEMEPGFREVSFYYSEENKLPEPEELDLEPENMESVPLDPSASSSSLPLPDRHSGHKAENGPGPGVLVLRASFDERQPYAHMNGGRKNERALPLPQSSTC

SMILES	inhibition at 1 µM (EPHA2) [%]	inhibition at 3 µM (EPHA2) [%]	inhibition at 10 µM (EPHA2) [%]	inhibition at 1 µM (IGF1R) [%]	inhibition at 3 µM (IGF1R) [%]	inhibition at 10 µM (IGF1R) [%]	inhibition at 1 µM (PKN1 (PRK1)) [%]	inhibition at 3 µM (PKN1 (PRK1)) [%]	inhibition at 10 µM (PKN1 (PRK1)) [%]	inhibition at 1 µM (ERBB4 (HER4)) [%]	inhibition at 3 µM (ERBB4 (HER4)) [%]	inhibition at 10 µM (ERBB4 (HER4)) [%]	inhibition at 1 µM (PLK1) [%]	inhibition at 3 µM (PLK1) [%]	inhibition at 10 µM (PLK1) [%]	inhibition at 1 µM (PIM3) [%]	inhibition at 3 µM (PIM3) [%]	inhibition at 10 µM (PIM3) [%]	inhibition at 1 µM (DCAMKL1 (DCLK1)) [%]	inhibition at 3 µM (DCAMKL1 (DCLK1)) [%]	also measured
O=C(CSc1nc2nccnc2c(=O)n1CCc1ccccc1)Nc1nccs1 [compound 1, PITCOIN1]	6.54	8.4	9.38	7.35	2.59	5.33	8.46	1.84	-4.65	-3.45	-1.62	0.146	8.77	11	10.9	-19.5	0.932	0.817	-1.36	-3.92	inhibition at 10 µM (DCAMKL1 (DCLK1)): 1.03%; inhibition at 1 µM (CSNK1G2 (CK1 gamma 2)): 0.334%; inhibition at 3 µM (CSNK1G2 (CK1 gamma 2)): 6.89%; inhibition at 10 µM (CSNK1G2 (CK1 gamma 2)): 8.12%; inhibition at 1 µM (ABL1): 2.07%; inhibition at 3 µM (ABL1): 2.45%; inhibition at 10 µM (ABL1): 1.9%; inhibition at 1 µM (EGFR (ErbB1) L858R): -0.259%; inhibition at 3 µM (EGFR (ErbB1) L858R): 2.85%; inhibition at 10 µM (EGFR (ErbB1) L858R): -1.14%; inhibition at 1 µM (SYK): 2.84%; inhibition at 3 µM (SYK): 2.83%; inhibition at 10 µM (SYK): -0.59%; inhibition at 1 µM (ALK): 8.08%; inhibition at 3 µM (ALK): 8.57%; inhibition at 10 µM (ALK): 8.82%
CS(=O)(=O)Nc1cccc(-c2csc(NC(=O)CSc3nc4nccnc4c(=O)n3CCc3ccccc3)n2)c1 [compound 3, PITCOIN3]	13.8	8.03	8.38	5.31	9.19	11.7	2.88	-5.53	4.05	-2.57	-5.3	-3.59	9.36	10	7.66	-2.65	-27.1	-12.5	-7.05	-11.7	inhibition at 10 µM (DCAMKL1 (DCLK1)): 13.7%; inhibition at 1 µM (CSNK1G2 (CK1 gamma 2)): 7.85%; inhibition at 3 µM (CSNK1G2 (CK1 gamma 2)): 15.6%; inhibition at 10 µM (CSNK1G2 (CK1 gamma 2)): 13.7%; inhibition at 1 µM (ABL1): 1.91%; inhibition at 3 µM (ABL1): 4.06%; inhibition at 10 µM (ABL1): 4%; inhibition at 1 µM (EGFR (ErbB1) L858R): 1.72%; inhibition at 3 µM (EGFR (ErbB1) L858R): 5.21%; inhibition at 10 µM (EGFR (ErbB1) L858R): -1.6%; inhibition at 1 µM (SYK): 0.0373%; inhibition at 3 µM (SYK): 3.51%; inhibition at 10 µM (SYK): 6.6%; inhibition at 1 µM (ALK): 17.2%; inhibition at 3 µM (ALK): 10.4%; inhibition at 10 µM (ALK): 10.9%
